In patent US20050061967A1, “Pattern recognition of whole cell mass spectra” (priority 2003, published 2005):

How the values were obtained:
Assay in all cases: MIC of antibiotics, antibiotic resistance profile of Salmonella enterica isolates
Assay type in all cases: cell-based
[1] = test system: Salmonella enterica serotype Heidelberg isolates
Experimental: (§1) The Salmonella enterica isolates were also typed by their antibiotic resistance and Pulsed-Field Gel Electrophoresis (PFGE) patterns. The isolates'=0 resistance profile, a common and obviously important phenotypic assay, was determined for twenty antibiotics commonly used in veterinary medicine to control Salmonella infections. PFGE is the most common and widely accepted genotypic method currently in use. The PFGE patterns were analyzed by statistical pattern recognition to produce a dendrogram in which similar gel patterns are clustered so that they appear in or near the same branch of a similarity “tree.” Then the two types of mass spectra for the same twenty-nine samples, under several variations, were also evaluated by pattern recognition.

[2] = test system: Salmonella enterica serotype Muenster isolates
Excerpt: (§2) To identify charge state of each ion cluster, we performed the following analyses on twenty-nine Salmonella enterica isolates (21 of serotype Heidelberg, 3 Anatum, 3 Worthington and 2 Muenster) from a turkey production environment. From the high mass end of the spectrum, we divided each ion peak by 2 or 3, look there for a corresponding peak. Ions at small integer dividends are then tabulated together with the largest, assumed to be a+1 charge state. Based on the assigned charge state, sum intensities (in the raw spectra) arising from nearby adducts or losses were calculated at their charge-state-predicted interval. The total around each same-charge-state cluster were added to the total for the same biomarker at its other identified charge states. Spectra were smoothed, the background was subtracted and then peaks were detected. Deconvolution was based on peaks at least 3% intensity of the base peak.
as §1

[3] = test system: Salmonella enterica serotype Anatum isolates
Excerpt: as §2, §1

[4] = test system: Salmonella enterica serotype Worthington isolates
Excerpt: as §2, §1

[5] = 6th of 29 isolates (ID cell blank)
[6] = 7th of 29 isolates (ID cell blank)
[7] = 9th of 29 isolates (ID cell blank)
[8] = 18th of 29 isolates (ID printed 8)
[9] = 22nd of 29 isolates (ID printed 2)
[10] = 29th of 29 isolates (ID printed 9)
[11] = 1st of 29 isolates (ID cell blank), turkey production environment
[12] = 2nd of 29 isolates (ID cell blank)
[13] = 3rd of 29 isolates (ID cell blank)

| MIC [1, 5] [µg/mL] | MIC [1, 6] [µg/mL] | MIC [1, 7] [µg/mL] | MIC ([1]; 10th of 29 isolates (ID 0)) [µg/mL] | MIC ([1]; 11th of 29 isolates (ID 1)) [µg/mL] | MIC ([1]; 13th of 29 isolates (ID 3)) [µg/mL] | MIC ([1]; 14th of 29 isolates (ID 4)) [µg/mL] | MIC ([1]; 15th of 29 isolates (ID 5)) [µg/mL] | MIC ([1]; 16th of 29 isolates (ID 6)) [µg/mL] | MIC [1, 8] [µg/mL] | MIC ([1]; 20th of 29 isolates (ID 0)) [µg/mL] | MIC ([1]; 21st of 29 isolates (ID 1)) [µg/mL] | MIC [1, 9] [µg/mL] | MIC ([1]; 24th of 29 isolates (ID 4)) [µg/mL] | MIC [2, 10] [µg/mL] | MIC [3, 11] [µg/mL] | MIC [3, 12] [µg/mL] | MIC [3, 13] [µg/mL] | MIC ([4]; 26th of 29 isolates (ID 6)) [µg/mL] | SMILES | other results |
| --- | --- | --- | --- | --- | --- | --- | --- | --- | --- | --- | --- | --- | --- | --- | --- | --- | --- | --- | --- | --- |
| >256 | >256 | >256 | >256 | >256 | >256 | >256 | >256 | >256 | >256 | >256 | >256 | >256 | >256 | >256 | 256 | 256 | 256 |  | CN[C@@H]1[C@H](O[C@H]2[C@H](O[C@H]3[C@H](O)[C@@H](O)[C@H](N=C(N)N)[C@@H](O)[C@@H]3N=C(N)N)O[C@@H](C)[C@]2(O)C=O)O[C@@H](CO)[C@H](O)[C@H]1O [St] |  |
| >512 | >512 | >512 | >512 | >512 | >512 | >512 | >512 | >512 | >512 | >512 | >512 | >512 | >512 |  |  |  |  |  | CN[C@@H]1[C@H](O)[C@H](NC)[C@H]2O[C@@]3(O)C(=O)C[C@@H](C)O[C@H]3O[C@@H]2[C@H]1O [Spt] |  |
|  |  |  | 256 |  |  |  |  |  |  |  |  |  | 256 |  | 512 | 256 | 256 | 32 | CN(C)C1C(O)=C(C(N)=O)C(=O)C2(O)C(O)=C3C(=O)c4c(O)cccc4C(C)(O)C3CC12 (stereo not drawn) [Te] | MIC ([1]; 5th of 29 isolates (ID cell blank)): 128 µg/mL; MIC ([4]; 17th of 29 isolates (ID printed 7)): 32 µg/mL; MIC ([4]; 27th of 29 isolates (ID printed 7)): 32 µg/mL |
| >512 |  | 512 | 512 | 512 | 512 | 512 | 512 |  |  | 512 |  |  |  | 32 |  |  |  | 64 | CC[C@H]1OC(=O)[C@H](C)[C@@H](O[C@H]2C[C@@](C)(OC)[C@@H](O)[C@H](C)O2)[C@H](C)[C@@H](O[C@@H]2O[C@H](C)C[C@H](N(C)C)[C@H]2O)[C@](C)(O)C[C@@H](C)C(=O)[C@H](C)[C@@H](O)[C@]1(C)O [Er] | MIC ([1]; 4th of 29 isolates (ID cell blank)): 512 µg/mL; MIC ([1]; 8th of 29 isolates (ID cell blank)): 512 µg/mL; MIC ([2]; 28th of 29 isolates (ID printed 8)): 512 µg/mL |
